In ChEMBL document CHEMBL3091334, “Design and synthesis of novel 3-(benzo[d]oxazol-2-yl)-5-(1-(piperidin-4-yl)-1H-pyrazol-4-yl)pyridin-2-amine derivatives as selective G-protein-coupled receptor kinase-2 and -5 inhibitors” (Bioorg Med Chem Lett, 2013):
One block for each compound: values may come before it.

Legend:
[1] = target: T1, Beta-adrenergic receptor kinase 1 (Homo sapiens, UniProt P25098); experiment: Inhibition of GRK-2 (unknown origin) preincubated with enzyme for 10 mins before adding peptide substrate and ATP measured after 1 hr by LANCE-TR-FRET assay
T1 sequence (P25098 whole entry): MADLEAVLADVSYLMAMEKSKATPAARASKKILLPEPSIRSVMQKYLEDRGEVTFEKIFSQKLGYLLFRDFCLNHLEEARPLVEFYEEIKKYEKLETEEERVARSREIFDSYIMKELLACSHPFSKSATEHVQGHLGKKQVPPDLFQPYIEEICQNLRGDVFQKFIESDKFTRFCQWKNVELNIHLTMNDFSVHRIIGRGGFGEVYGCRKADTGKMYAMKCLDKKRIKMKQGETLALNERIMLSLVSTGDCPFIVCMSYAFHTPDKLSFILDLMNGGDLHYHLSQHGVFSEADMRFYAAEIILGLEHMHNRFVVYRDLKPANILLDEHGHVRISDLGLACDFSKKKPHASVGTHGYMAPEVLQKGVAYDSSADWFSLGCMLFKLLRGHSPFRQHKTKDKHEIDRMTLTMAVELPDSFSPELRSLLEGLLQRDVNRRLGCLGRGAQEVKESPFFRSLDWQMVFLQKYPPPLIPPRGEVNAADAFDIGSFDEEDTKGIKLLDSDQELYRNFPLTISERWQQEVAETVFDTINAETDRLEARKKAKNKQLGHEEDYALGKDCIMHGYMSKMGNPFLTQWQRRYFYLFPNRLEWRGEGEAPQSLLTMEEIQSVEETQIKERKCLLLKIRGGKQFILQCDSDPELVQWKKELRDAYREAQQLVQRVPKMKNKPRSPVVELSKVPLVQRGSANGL

[2] = target: G protein-coupled receptor kinase 5 (Homo sapiens, UniProt P34947)
Sequence of G protein-coupled receptor kinase 5 (P34947 whole entry): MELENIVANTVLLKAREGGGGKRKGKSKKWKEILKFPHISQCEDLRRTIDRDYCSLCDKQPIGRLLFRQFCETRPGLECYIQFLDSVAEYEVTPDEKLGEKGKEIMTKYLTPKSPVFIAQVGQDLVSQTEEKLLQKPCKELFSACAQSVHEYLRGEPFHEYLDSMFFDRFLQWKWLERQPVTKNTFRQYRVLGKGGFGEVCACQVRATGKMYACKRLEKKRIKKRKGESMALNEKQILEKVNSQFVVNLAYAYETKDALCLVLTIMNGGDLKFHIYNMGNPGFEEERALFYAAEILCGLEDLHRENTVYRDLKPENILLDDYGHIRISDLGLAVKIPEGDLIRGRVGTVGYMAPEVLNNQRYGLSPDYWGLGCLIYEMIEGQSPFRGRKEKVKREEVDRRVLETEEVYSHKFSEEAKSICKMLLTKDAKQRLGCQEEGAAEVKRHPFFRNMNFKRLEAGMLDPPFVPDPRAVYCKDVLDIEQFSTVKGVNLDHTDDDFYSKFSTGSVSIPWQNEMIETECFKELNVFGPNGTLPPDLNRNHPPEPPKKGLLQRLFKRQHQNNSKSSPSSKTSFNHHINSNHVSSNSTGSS
Description: Inhibition of GRK-5 (unknown origin) preincubated with enzyme for 10 mins before adding peptide substrate and ATP measured after 1 hr by LANCE-TR-FRET assay

[3] = target: Hepatocyte growth factor receptor (Homo sapiens, UniProt P08581); experiment: Inhibition of c-Met (unknown origin)
Sequence of Hepatocyte growth factor receptor (P08581 whole entry): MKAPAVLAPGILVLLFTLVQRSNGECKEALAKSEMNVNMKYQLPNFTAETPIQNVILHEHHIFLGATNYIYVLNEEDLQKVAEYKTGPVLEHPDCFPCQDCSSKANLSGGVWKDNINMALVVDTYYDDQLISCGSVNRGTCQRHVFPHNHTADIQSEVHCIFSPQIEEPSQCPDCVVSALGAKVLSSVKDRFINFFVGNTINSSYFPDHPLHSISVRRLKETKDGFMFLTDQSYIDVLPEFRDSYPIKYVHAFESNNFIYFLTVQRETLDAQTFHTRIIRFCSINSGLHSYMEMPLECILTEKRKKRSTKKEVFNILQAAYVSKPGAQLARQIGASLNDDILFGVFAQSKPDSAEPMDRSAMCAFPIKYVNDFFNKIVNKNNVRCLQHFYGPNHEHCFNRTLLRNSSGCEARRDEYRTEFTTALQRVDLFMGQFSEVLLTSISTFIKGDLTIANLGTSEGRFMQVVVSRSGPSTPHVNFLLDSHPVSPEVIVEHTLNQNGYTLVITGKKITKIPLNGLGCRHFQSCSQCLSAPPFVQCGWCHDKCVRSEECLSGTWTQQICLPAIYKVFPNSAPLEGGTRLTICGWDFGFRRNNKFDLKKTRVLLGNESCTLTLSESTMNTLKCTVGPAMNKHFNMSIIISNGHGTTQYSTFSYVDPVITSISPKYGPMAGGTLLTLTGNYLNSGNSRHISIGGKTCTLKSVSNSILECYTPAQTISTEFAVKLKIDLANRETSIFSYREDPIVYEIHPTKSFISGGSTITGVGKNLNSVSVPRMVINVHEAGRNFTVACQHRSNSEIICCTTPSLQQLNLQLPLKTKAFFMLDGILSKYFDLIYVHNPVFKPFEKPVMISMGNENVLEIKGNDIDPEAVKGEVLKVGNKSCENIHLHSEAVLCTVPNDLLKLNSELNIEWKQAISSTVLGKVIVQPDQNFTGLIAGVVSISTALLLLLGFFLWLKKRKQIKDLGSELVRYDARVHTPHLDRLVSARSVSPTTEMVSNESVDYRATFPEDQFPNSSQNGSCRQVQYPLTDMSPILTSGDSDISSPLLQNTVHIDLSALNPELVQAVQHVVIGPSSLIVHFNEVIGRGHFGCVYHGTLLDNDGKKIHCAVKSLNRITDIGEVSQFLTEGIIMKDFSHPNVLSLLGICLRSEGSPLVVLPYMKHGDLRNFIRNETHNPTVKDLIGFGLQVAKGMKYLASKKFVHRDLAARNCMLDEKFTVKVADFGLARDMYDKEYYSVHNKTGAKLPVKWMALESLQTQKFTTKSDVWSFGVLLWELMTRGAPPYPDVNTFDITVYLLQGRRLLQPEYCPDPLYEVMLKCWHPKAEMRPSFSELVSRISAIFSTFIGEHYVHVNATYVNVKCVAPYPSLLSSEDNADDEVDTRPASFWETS

[4] = target: ALK tyrosine kinase receptor (Homo sapiens, UniProt Q9UM73); experiment: Inhibition of ALK (unknown origin)
Sequence of ALK tyrosine kinase receptor (Q9UM73 whole entry): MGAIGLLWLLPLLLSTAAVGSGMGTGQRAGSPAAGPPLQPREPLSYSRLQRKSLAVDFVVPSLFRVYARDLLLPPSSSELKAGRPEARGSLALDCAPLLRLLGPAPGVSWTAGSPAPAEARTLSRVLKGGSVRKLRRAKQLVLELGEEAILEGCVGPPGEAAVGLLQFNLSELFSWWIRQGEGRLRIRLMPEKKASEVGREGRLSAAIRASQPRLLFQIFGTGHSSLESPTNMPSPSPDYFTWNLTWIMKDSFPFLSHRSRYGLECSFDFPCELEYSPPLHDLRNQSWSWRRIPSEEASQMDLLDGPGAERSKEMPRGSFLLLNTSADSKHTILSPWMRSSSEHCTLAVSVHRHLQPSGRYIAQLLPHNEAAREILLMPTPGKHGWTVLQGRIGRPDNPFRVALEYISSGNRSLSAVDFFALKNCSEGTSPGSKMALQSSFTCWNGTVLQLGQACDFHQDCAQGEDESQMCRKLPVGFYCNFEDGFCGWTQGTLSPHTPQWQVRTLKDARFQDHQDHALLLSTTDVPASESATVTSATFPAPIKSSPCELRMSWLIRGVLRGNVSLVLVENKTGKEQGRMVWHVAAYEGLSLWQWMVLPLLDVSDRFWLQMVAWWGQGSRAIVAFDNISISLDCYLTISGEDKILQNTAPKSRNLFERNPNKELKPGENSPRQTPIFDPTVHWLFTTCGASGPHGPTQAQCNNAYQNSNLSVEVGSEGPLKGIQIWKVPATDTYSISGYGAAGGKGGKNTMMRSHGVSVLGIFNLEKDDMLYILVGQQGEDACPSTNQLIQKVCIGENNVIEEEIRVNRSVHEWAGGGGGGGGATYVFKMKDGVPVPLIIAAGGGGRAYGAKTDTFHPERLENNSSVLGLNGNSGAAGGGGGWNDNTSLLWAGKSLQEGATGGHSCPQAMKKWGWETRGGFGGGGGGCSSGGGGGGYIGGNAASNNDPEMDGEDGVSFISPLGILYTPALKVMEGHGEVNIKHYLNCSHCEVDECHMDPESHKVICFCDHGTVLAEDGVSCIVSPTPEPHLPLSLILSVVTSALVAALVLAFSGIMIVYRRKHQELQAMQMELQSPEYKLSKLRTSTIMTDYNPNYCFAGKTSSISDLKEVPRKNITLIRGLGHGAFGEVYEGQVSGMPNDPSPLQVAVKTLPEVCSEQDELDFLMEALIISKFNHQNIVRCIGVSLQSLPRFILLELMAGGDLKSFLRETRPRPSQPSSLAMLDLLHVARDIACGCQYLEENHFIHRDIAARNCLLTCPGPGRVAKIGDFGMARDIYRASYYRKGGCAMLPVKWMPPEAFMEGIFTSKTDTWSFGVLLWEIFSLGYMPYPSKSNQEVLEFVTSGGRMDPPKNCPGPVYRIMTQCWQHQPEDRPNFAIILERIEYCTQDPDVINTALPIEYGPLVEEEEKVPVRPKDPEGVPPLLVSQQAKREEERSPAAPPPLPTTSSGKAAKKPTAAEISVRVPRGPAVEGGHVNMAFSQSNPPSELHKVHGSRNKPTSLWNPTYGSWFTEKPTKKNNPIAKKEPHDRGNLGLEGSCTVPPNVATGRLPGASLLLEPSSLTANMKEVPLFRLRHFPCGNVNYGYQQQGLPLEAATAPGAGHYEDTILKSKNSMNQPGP

Structure (SMILES): Nc1ncc(-c2cnn(C3CCNCC3)c2)cc1-c1nc2ccc(NC(=O)Nc3ccccc3)cc2o1
IC50 [1]: 2.63 µM
IC50 [2]: 1.66 µM

Structure (SMILES): Nc1ncc(-c2cnn(C3CCNCC3)c2)cc1-c1nc2ccc(Nc3ccc(F)cc3)cc2o1
IC50 [1]: 9.3 µM
IC50 [2]: 3.7 µM

Structure (SMILES): CC(=O)Nc1ccc2oc(-c3cc(-c4cnn(C5CCNCC5)c4)cnc3N)nc2c1
IC50 [1]: 3.06 µM
IC50 [2]: 3.22 µM

Structure (SMILES): CNc1ccc2oc(-c3cc(-c4cnn(C5CCNCC5)c4)cnc3N)nc2c1
IC50 [1]: 6.32 µM

Structure (SMILES): Cc1c(O)ccc2nc(-c3cc(-c4cnn(C5CCNCC5)c4)cnc3N)oc12
IC50 [1]: 13 µM
IC50 [2]: 2.2 µM

Structure (SMILES): Nc1ncc(-c2cnn(C3CCNCC3)c2)cc1-c1nc2ccc(Oc3ncccn3)cc2o1
IC50 [1]: > 10 µM
IC50 [2]: 3.1 µM

Structure (SMILES): CCCNc1ccc2oc(-c3cc(-c4cnn(C5CCNCC5)c4)cnc3N)nc2c1
IC50 [1]: 3.19 µM

Structure (SMILES): Nc1ncc(-c2cnn(C3CCNCC3)c2)cc1-c1nc2cc(-c3ccccc3)ccc2o1
IC50 [1]: > 10 µM
IC50 [2]: 4.5 µM

Structure (SMILES): Nc1ncc(-c2cnn(C3CCNCC3)c2)cc1-c1nc2ccc(N3CCCCC3)cc2o1
IC50 [1]: 10.1 µM
IC50 [2]: 4.3 µM

Structure (SMILES): Nc1ncc(-c2cnn(C3CCNCC3)c2)cc1-c1nc2ccc(Nc3cc(C(F)(F)F)cc(C(F)(F)F)c3)cc2o1
IC50 [1]: 5.7 µM
IC50 [2]: 4.2 µM

Structure (SMILES): Nc1ncc(-c2cnn(C3CCNCC3)c2)cc1-c1nc2ccc(Nc3c(F)cccc3F)cc2o1
IC50 [1]: 11.5 µM
IC50 [2]: 4.7 µM

Structure (SMILES): Nc1ncc(-c2cnn(C3CCNCC3)c2)cc1-c1nc2ccc(Nc3cc(F)cc(F)c3)cc2o1
IC50 [1]: 2.26 µM
IC50 [2]: 1.25 µM

Structure (SMILES): Nc1ncc(-c2cnn(C3CCNCC3)c2)cc1-c1nc2ccc(-c3cn[nH]c3)cc2o1
IC50 [1]: 10 µM
IC50 [2]: 1.78 µM

Structure (SMILES): Nc1ncc(-c2cnn(C3CCNCC3)c2)cc1-c1nc2ccc(Oc3ccccc3)cc2o1
IC50 [1]: > 10 µM
IC50 [2]: 4 µM

Structure (SMILES): Nc1ncc(-c2cnn(C3CCNCC3)c2)cc1-c1nc2ccc(Oc3ccc(F)cc3)cc2o1
IC50 [1]: > 10 µM
IC50 [2]: 7.9 µM

Structure (SMILES): Nc1ncc(-c2cnn(C3CCNCC3)c2)cc1-c1nc2ccc(Oc3cc(Cl)ccn3)cc2o1
IC50 [1]: 17 µM
IC50 [2]: 5.7 µM

Structure (SMILES): COc1ccc(N(C(=O)Nc2ccc3nc(-c4cc(-c5cnn(C6CCNCC6)c5)cnc4N)oc3c2)c2ccccc2)cc1
IC50 [1]: 0.66 µM

Structure (SMILES): Nc1ncc(-c2cnn(C3CCNCC3)c2)cc1-c1nc2ccc(NC(=O)Nc3ccc(F)cc3)cc2o1
IC50 [1]: 1.72 µM

Structure (SMILES): Nc1ncc(-c2cnn(C3CCNCC3)c2)cc1-c1nc2ccc(NC(=O)c3ccc(C(F)(F)F)cc3)cc2o1
IC50 [1]: 3.2 µM
IC50 [2]: 2.83 µM

Structure (SMILES): CS(=O)(=O)Oc1ccc2nc(-c3cc(-c4cnn(C5CCNCC5)c4)cnc3N)oc2c1
IC50 [1]: > 10 µM
IC50 [2]: 6.4 µM

Structure (SMILES): CC(C)NC(=O)c1cc2nc(-c3cc(-c4cnn(C5CCNCC5)c4)cnc3N)oc2cc1O
IC50 [1]: > 10 µM

Structure (SMILES): CN(C)COc1cccc(-c2cnc(N)c(-c3nc4cccc(-c5ccccn5)c4o3)c2)c1
IC50 [1]: > 10 µM
IC50 [2]: 5.1 µM

Structure (SMILES): Nc1ncc(-c2cccc(C(=O)NCCN3CCOCC3)c2)cc1-c1nc2cccc(-c3ccccn3)c2o1
IC50 [1]: > 10 µM

Structure (SMILES): Nc1ncc(-c2cnn(C3CCNCC3)c2)cc1-c1nc2ccc(O)c(-c3ccc4cn[nH]c4c3)c2o1
IC50 [1]: 6.5 µM

Structure (SMILES): COc1ccc(-c2c(O)ccc3nc(-c4cc(-c5cnn(C6CCNCC6)c5)cnc4N)oc23)cc1
IC50 [1]: > 10 µM

Structure (SMILES): CN(c1ccccc1)c1ccc2oc(-c3cc(-c4cnn(C5CCNCC5)c4)cnc3N)nc2c1
IC50 [1]: 13 µM
IC50 [2]: 5.05 µM

More lines, now with the values ahead:

IC50 [1]: 8.3 µM
Structure (SMILES): Cc1ccc(S(=O)(=O)NC(=O)Nc2ccc3nc(-c4cc(-c5cnn(C6CCNCC6)c5)cnc4N)oc3c2)cc1

IC50 [1]: 9.7 µM
Structure (SMILES): Nc1ncc(-c2cnn(C3CCNCC3)c2)cc1-c1nc2ccc(O)c(-c3ccccc3)c2o1

IC50 [1]: 2.14 µM
Structure (SMILES): Cc1cc2nc(-c3cc(-c4cnn(C5CCNCC5)c4)cnc3N)oc2cc1O

IC50 [1]: 6.2 µM
IC50 [2]: 1.94 µM
Structure (SMILES): Nc1ccc2nc(-c3cc(-c4cnn(C5CCNCC5)c4)cnc3N)oc2c1

IC50 [1]: 4.22 µM
Structure (SMILES): Nc1ccc2oc(-c3cc(-c4cnn(C5CCNCC5)c4)cnc3N)nc2c1

IC50 [1]: 4.9 µM
IC50 [2]: 3.5 µM
Structure (SMILES): Nc1ncc(-c2cnn(C3CCNCC3)c2)cc1-c1nc2cc(Nc3ccccc3)ccc2o1

IC50 [1]: 5.52 µM
Structure (SMILES): CCCCNc1ccc2oc(-c3cc(-c4cnn(C5CCNCC5)c4)cnc3N)nc2c1

IC50 [1]: 8.27 µM
IC50 [2]: 1.76 µM
Structure (SMILES): CN(C)c1ccc2oc(-c3cc(-c4cnn(C5CCNCC5)c4)cnc3N)nc2c1

IC50 [1]: 5.3 µM
IC50 [2]: 0.81 µM
Structure (SMILES): Nc1ncc(-c2cnn(C3CCNCC3)c2)cc1-c1nc2ccc(N3CCOCC3)cc2o1

IC50 [1]: 0.46 µM
IC50 [3]: 0.008 µM
IC50 [4]: 0.34 µM
Structure (SMILES): Nc1ncc(-c2cnn(C3CCNCC3)c2)cc1-c1nc2ccc(N3CCCC3)cc2o1

IC50 [1]: > 10 µM
Structure (SMILES): CC(C)Nc1ccc2nc(-c3cc(-c4cnn(C5CCNCC5)c4)cnc3N)oc2c1

IC50 [1]: > 10 µM
IC50 [2]: 6.9 µM
Structure (SMILES): Nc1ncc(-c2cnn(C3CCNCC3)c2)cc1-c1nc2ccc(OCc3ccccc3)cc2o1

IC50 [1]: 4.05 µM
IC50 [2]: 1.14 µM
Structure (SMILES): Nc1ncc(-c2cnn(C3CCNCC3)c2)cc1-c1nc2ccc(-c3ccc4[nH]ncc4c3)cc2o1

IC50 [1]: 11.9 µM
IC50 [2]: 1.31 µM
Structure (SMILES): Nc1ncc(-c2cnn(C3CCNCC3)c2)cc1-c1nc2ccc(OCc3ccc(F)cc3)cc2o1

IC50 [1]: 8.1 µM
IC50 [2]: 3.6 µM
Structure (SMILES): N#Cc1ccnc(Oc2ccc3nc(-c4cc(-c5cnn(C6CCNCC6)c5)cnc4N)oc3c2)c1

IC50 [1]: 3.8 µM
IC50 [2]: 1.2 µM
Structure (SMILES): Nc1ncc(-c2cnn(C3CCNCC3)c2)cc1-c1nc2ccc(Oc3ccc(-c4ccccc4)nn3)cc2o1

IC50 [1]: 6.05 µM
IC50 [2]: 4.2 µM
Structure (SMILES): Nc1ncc(-c2cnn(C3CCNCC3)c2)cc1-c1nc2ccc(Nc3ccccn3)cc2o1

IC50 [1]: 3.19 µM
IC50 [2]: 3.49 µM
Structure (SMILES): Nc1ncc(-c2cnn(C3CCNCC3)c2)cc1-c1nc2ccc(NC(=O)c3ccccc3)cc2o1

IC50 [1]: 0.96 µM
Structure (SMILES): Nc1ncc(-c2cnn(C3CCNCC3)c2)cc1-c1nc2ccc(NC(=O)c3ccc(F)cc3)cc2o1

IC50 [1]: 3.97 µM
IC50 [2]: 2.09 µM
Structure (SMILES): COc1ccc(C(=O)Nc2ccc3nc(-c4cc(-c5cnn(C6CCNCC6)c5)cnc4N)oc3c2)cc1

IC50 [1]: 3.06 µM
IC50 [2]: 3.22 µM
Structure (SMILES): COc1ccc(-c2ccc3nc(-c4cc(-c5cnn(C6CCNCC6)c5)cnc4N)oc3c2)cc1

IC50 [1]: > 10 µM
IC50 [2]: 3.4 µM
Structure (SMILES): CCc1ccc2nc(-c3cc(-c4cnn(C5CCNCC5)c4)cnc3N)oc2c1O

IC50 [1]: 9.16 µM
IC50 [2]: 2.21 µM
Structure (SMILES): COc1ccc2nc(-c3cc(-c4cnn(C5CCNCC5)c4)cnc3N)oc2c1-c1ccc2cn[nH]c2c1

IC50 [1]: 0.85 µM
Structure (SMILES): Nc1ncc(-c2cnn(C3CCNCC3)c2)cc1-c1nc2cc(N3CCCCC3)ccc2o1

IC50 [1]: 6.43 µM
IC50 [2]: 1.05 µM
Structure (SMILES): Nc1ncc(-c2cnn(C3CCNCC3)c2)cc1-c1nc2cc(N3CCOCC3)ccc2o1

IC50 [1]: 1.65 µM
Structure (SMILES): Nc1ncc(-c2cnn(C3CCNCC3)c2)cc1-c1nc2cc(N3CCCC3)ccc2o1
